The subject of experiment [1] is fMLF/CB-induced human neutrophils (elastase release). Kind of experiment: Elastase release in fMLF/CB-induced human neutrophils. It counts as cell-based. The following applies: Neutrophil; for inhibition at 10 µM: Homo sapiens, percentage of inhibition at 10 μM, read-out: Elastase Inh %; for IC50: fMLF/CB-induced human neutrophils. On the procedure: (§1) Human neutrophils were isolated from the blood of healthy adult volunteers and enriched by using dextran sedimentation, Ficoll–Hypaque gradient centrifugation, and hypotonic lysis, as described previously. Then, neutrophils were incubated in Ca^2+-free HBSS buffer (pH 7.4, ice-cold).
Neutrophils (6 × 10^5 cells/mL) incubated (with 100 μM MeO-Suc-Ala-Ala-Pro-Val-p- nitroanilide and 1 mM Ca^2+) in HBSS at 37 °C were treated with DMSO or the tested compound for 5 min. Neutrophils were, then, activated with fMLF (100 nM)/CB (0.5 μg/mL) for 10 min. The change of elastase release was spectrophotomically measured at 405 nm (U-3010, Hitachi, Tokyo, Japan).

Experiment [2] relates to fMLF/CB-induced human neutrophils (superoxide anion generation). In words: Superoxide anion generation in fMLF/CB-induced human neutrophils. The settings on record: Neutrophil; for inhibition at 10 µM: Homo sapiens, percentage of inhibition at 10 μM, read-out: Superoxide Anion Inh %; for IC50: fMLF/CB-induced human neutrophils. Format: cell-based. As for the experimental part: as §1
Neutrophils (6 × 10^5 cells/mL) incubated (with 0.6 mg/mL ferricytochrome c and 1 mM Ca^2+) in HBSS at 37 °C were treated with DMSO (as control) or tested compound for 5 min. Neutrophils were primed by 1 μg/mL cytochalasin B (CB) for 3 min before being activated by 100 nM fMLF for 10 min. The change of superoxide anion generation was spectrophotomically measured at 550 nm (U-3010, Hitachi, Tokyo, Japan). LY294002 [2-(4-morpholinyl)-8-phenyl-1(4H)-benzopyran- 4-one] was used as a positive control.

Setting [3] is: mean ± SEM (n ≥ 3), read-out: Elastase IC50.
Where [4] appears, read: mean ± SEM (n ≥ 3), read-out: Superoxide Anion IC50.
[5] abbreviates: dash per footnote b, read-out: Elastase IC50 (dash class).
Setting [6] is: dash per footnote b, read-out: Superoxide Anion IC50 (dash class).

Read-outs that look alike come from different tables or passages of the source.

Our source for the inhibition and IC50 values is article PMC7830757, “An Anti-Inflammatory 2,4-Cyclized-3,4-Secospongian Diterpenoid and Furanoterpene-Related Metabolites of a Marine Sponge Spongia sp. from the Red Sea” (Marine Drugs, 2021).

Broadly, the IC50 is the concentration that gives 50% inhibition. In the case of `CC12CCC3C(C)(C1CCc1cocc12)C(O)C1(O)C(=O)OCC31C` (centres unmarked) [Compound 1, 17-dehydroxysponalactone], the figures for the inhibition at 10 µM in experiment [1] (mean ± SEM (n ≥ 3)) and in experiment [2] (mean ± SEM (n ≥ 3)) were 90.3% and 91.4%, respectively. Besides, the IC50 in experiment [1] (setting [3]) is 4.07 µM; in experiment [2] (setting [4]), 3.37 µM.

`C/C(=C\CCc1ccoc1)CCC(=O)O` [Compound 2, (E)-7-(furan-3-yl)-4-methylhept-4-enoic acid]: the inhibition at 10 µM was determined as 14% in experiment [1] (mean ± SEM (n ≥ 3)) and 3.47% in experiment [2] (mean ± SEM (n ≥ 3)). Further, the IC50 in experiment [1] (setting [5]) and in experiment [2] (setting [6]) was over 10 µM in each case.

For the compound `C/C(=C\CC(=O)NO)CCCc1ccoc1` [Compound 3, spongiafuranohydroxamic acid A], the values for the inhibition at 10 µM in experiment [1] (mean ± SEM (n ≥ 3)) and in experiment [2] (mean ± SEM (n ≥ 3)) were 18% and 8.85%, respectively. Besides, the IC50 in experiment [1] (setting [5]) and in experiment [2] (setting [6]) was over 10 µM throughout.

On to `CC(=CCCc1ccoc1)CCC=C(C)CCC(O)C1(C)CCC(=O)O1` (stereo not drawn) [Compound 4, 16-epi-irciformonin G], for which the inhibition at 10 µM in experiment [1] (mean ± SEM (n ≥ 3)) is -1.07%; in experiment [2] (mean ± SEM (n ≥ 3)), 2.61%. For the same compound, the IC50 in experiment [1] (setting [5]) and in experiment [2] (setting [6]) was over 10 µM in each case.

As for `C/C(=C\CCc1ccoc1)CCC(=O)N[C@H]1CCOC1=O` [Compound 5, (−)-sponalisolide B], the inhibition at 10 µM in experiment [1] (mean ± SEM (n ≥ 3)) was 35.2%; in experiment [2] (mean ± SEM (n ≥ 3)), 67.1%. For the same compound, the IC50 was over 10 µM in experiment [1] (setting [5]) and 5.31 µM in experiment [2] (setting [4]).

In the case of `CC1=C(O)C(=O)CC2(C)C1CCC1(CO)c3cocc3CCC12` (centres unmarked) [Compound 6, 18-nor-3,17-dihydroxyspongia-3,13(16),14-trien-2-one], the inhibition at 10 µM amounted to 19.2% in experiment [1] (mean ± SEM (n ≥ 3)) and 9.44% in experiment [2] (mean ± SEM (n ≥ 3)). Further, the IC50 in experiment [1] (setting [5]) and in experiment [2] (setting [6]) was over 10 µM each time.

On to `CC(C)CCC[C@@H](C)[C@H]1CC[C@H]2C3=CC(=O)[C@@]4(O)C[C@@H](O)CC[C@]4(C)[C@H]3CC[C@]12C` [Compound 7, cholesta-7-ene-3β,5α-diol-6-one], for which the inhibition at 10 µM in experiment [1] (mean ± SEM (n ≥ 3)) was found to be 25.9%; in experiment [2] (mean ± SEM (n ≥ 3)), 12.8%. Besides, the IC50 in experiment [1] (setting [5]) and in experiment [2] (setting [6]) was over 10 µM in each case.

For the compound `O=c1cc(N2CCOCC2)oc2c(-c3ccccc3)cccc12` [LY294002, 2-(4-morpholinyl)-8-phenyl-1(4H)-benzopyran-4-one, reference compound], the results for the inhibition at 10 µM in experiment [1] (mean ± SEM (n ≥ 3)) and in experiment [2] (mean ± SEM (n ≥ 3)) were 77.6% and 90.3%, respectively. The IC50 in experiment [1] (setting [3]) came out at 2.58 µM; in experiment [2] (setting [4]) it was 1.88 µM.
